Measurements taken from US4879311A, “Derivatives of benzoyloxyacetic acid, and preparation and formulations thereof for therapeutic use” (Inverni della Beffa S.p.A., priority 1987, dated 1989).
Values joined by “and” are separate entries in the source; they are usually repeats but may differ in a detail not shown here. Equal entries are not always repeated. “Also recorded” adds a separate entry of the source. Structures can show the parent of a compound that is named as a salt. Where two headings read alike, the source gives them in different places.

Assays:
pH of aqueous solution = format: physicochemical
[1] = test system: reaction time to heat (hot plate); format: in vivo, mouse; conditions: oral; for Percentages of mice protected at 30 minutes / Percentages of mice protected at 60 minutes: reaction time 15 seconds or more, 55° C.
Protocol: (§1) The anti-inflammatory and analgesic activity of compound Ib was tested after oral administration in the carrageenin oedema test in the rat (C. A. Winter et al. Proc. Soc. Exp. Biol. Med., 111, 544, 1962), in the phenylquinone writhing test (I. C. Hendershot and J. J. Forsaith, Pharmacol. Exp. Ther., 125, 237, 1959) and in the hot plate test on the mouse (N. B. Eddy and D. J. Leimbach, J. Pharmacol. Exp. Ther., 107, 385, 1953). The activity of the compound was compared with equimolecular doses of sodium meclofenamate. A comparison was also made between the acute toxicity of the two substances by measuring the oral LD 50 on the rat.
The substances under test were administered by a stomach probe to preselected mice. The controls and the treated animals were placed on the hot plate (55° C.) one at a time immediately after treatment. The reaction time to heat, was measured 30 and 60 minutes after treatment. Animals were considered protected when the reaction time was 15 seconds or more.

carrageenin oedema = carrageenin oedema test in the rat, oral administration; format: in vivo; conditions: for % change of increase of original volume, 1 h / % change of increase of original volume, 2 h / % change of increase of original volume, 3 h / % change of increase of original volume, 4 h / % change of increase of original volume, 5 h: vs controls
Protocol: as §1
The substances under test, dissolved in distilled water, were administered by a stomach probe 1 hour before subplantar injection of carrageenin (1% in sterile 0.9% NaCl aqueous solution). […]

[2] = test system: 6-day old air pouch irritated by carrageenan; assay: irritation of 6-day old air pouch by carrageenan in the rat; format: in vivo
Protocol: (2) Irritation of 6-day old air pouch by carrageenan in the rat (A. D. Sedgwick, Y. M. Sin, A. R. Mackay, A. Al-Duaij and D. A. Willoughby; J. Pharm. Pharmacol.; 36, 171, 1984).
The formation of a dorsal pouch was induced in the rat by dorsal subcutaneous administration of 20 ml of air. 10 ml of air were then injected every day for three consecutive days in order to keep the cavity permeable. Six days after the first injection of air, the dorsal pouch in the animals was treated with 1 ml of 1% carrageenan in physiological solution.
Compound Ib was administered by gastric probe, 24 hours and 1 hour before administration of the irritating agent.
The animals, dividedinto groups of five, were killed 4 hours and 24 hours after the carrageenan. The volume of the exudate and the total number of leucocytes were measured.

[3] = acute toxicity on the rat, oral LD50; format: in vivo; conditions: rat, in vivo, po
Protocol: as §1
(§2) The two LD 50 values were calculated by the probit method.

rat = assay: acute toxicity on the rat, oral LD50; format: in vivo
Protocol: as §1, §2

arachidonic acid oedema = arachidonic acid oedema in the rat, oral administration; format: in vivo; conditions: for change of Increase of Original Volume (in parentheses), 60 min: vs controls
Protocol: (1) Arachidonic acid oedema in the rat (M. J. Di Martino, G. C. Campbell Jnr., C. E. Wolff and N. Hanna, Agents and Actions; 21, 303, 1987)
Compound Ib was administered by gastric probe one hour before subplantar injection of 0.1 ml of 0.5% arachidonic acid in carbonate buffer (pH 8-8.2).
The volume of the paws of the treated animals and of the control was measured with a plethysmometer immediately and 60 minutes after the irritating agent (peak time of oedema).

[4] = test system: writhing induced by phenylquinone; assay: phenylquinone writhing test, oral administration; format: in vivo, mouse
Protocol: as §1
The substances under test were administered by a stomach probe 1 hour before intraperitoneal injection of phenylquinone (2 mg/kg). The abdominal contractions of the treated animals and the controls were counted during every 10 minutes for half an hour.

[5] = Ib 12.7 mg/kg, sodium meclofenamate 11 mg/kg
[6] = Ib 25.4 mg/kg, sodium meclofenamate 22 mg/kg
[7] = rat, oral, dose corresponding to 10 mg/kg meclofenamic acid (Ib 12.7 mg/kg; sodium meclofenamate 11.0 mg/kg)
[8] = rat, oral, dose corresponding to 10 mg/kg meclofenamic acid
[9] = rat, oral, dose corresponding to 20 mg/kg meclofenamic acid (Ib 25,4 mg/kg; sodium meclofenamate 22,0 mg/kg), **P < 0.01 vs controls
[10] = rat, oral, dose corresponding to 20 mg/kg meclofenamic acid
[11] = os, Ib 31.75 mg/kg × 2 (**P < 0.01), sodium meclofenamate 27.5 mg/kg × 2 (*P < 0.05 vs controls), 24 h
[12] = os, Ib 31.75 mg/kg × 2, sodium meclofenamate 27.5 mg/kg × 2, 4 h, vs controls
[13] = os, Ib 31.75 mg/kg × 2, sodium meclofenamate 27.5 mg/kg × 2, 24 h, vs controls
[14] = oral, Ib 12.7 mg/kg, sodium meclofenamate 11.0 mg/kg
[15] = oral, Ib 25.4 mg/kg, sodium meclofenamate 22.0 mg/kg
[16] = oral, dose corresponding to 10 mg/kg meclofenamic acid (Ib 12.7 mg/kg; sodium meclofenamate 11.0 mg/kg)
[17] = oral, dose corresponding to 10 mg/kg meclofenamic acid (Ib 12.7 mg/kg; sodium meclofenamate 11.0 mg/kg), **P < 0.01 vs controls
[18] = oral, dose corresponding to 20 mg/kg meclofenamic acid (Ib 25.4 mg/kg; sodium meclofenamate 22.0 mg/kg), **P < 0.01 vs controls

Cc1ccc(Cl)c(Nc2ccccc2C(=O)OCC(=O)O)c1Cl [Ib, sodium salt (Ib) of 2-[(2,6-dichloro-3-methylphenyl)-amino]benzoyloxyacetic acid]
pH in 1% aqueous solution (pH of aqueous solution; 1% aqueous solution): 6.9 and 7.1 | pH of aqueous solution (in words) (pH of aqueous solution; 1% aqueous solution (Ib)): practically neutral pH | activity in the hot plate test (in words) ([1]; mouse): some activity; also recorded: slight analgesic activity after 30 minutes | Percentages of mice protected at 30 minutes [1, 5]: 0% | Percentages of mice protected at 60 minutes [1, 5]: 0% | Percentages of mice protected at 30 minutes [1, 6]: 20% | Percentages of mice protected at 60 minutes [1, 6]: 0% | significance of Ib vs. sodium meclofenamate (carrageenin oedema; Duncan test): Not significant | Increase of original volume (m ± s.e.), 1 h (carrageenin oedema; [7]): 0.44 ± 0.3 mL | Increase of original volume (m ± s.e.), 2 h (carrageenin oedema; [7]): 0.81 ± 0.07 mL | Increase of original volume (m ± s.e.), 3 h (carrageenin oedema; [7]): 1.23 ± 0.06 mL | Increase of original volume (m ± s.e.), 4 h (carrageenin oedema; [7]): 1.39 ± 0.06 mL | Increase of original volume (m ± s.e.), 5 h (carrageenin oedema; [7]): 1.10 ± 0.08 mL | % change of increase of original volume, 1 h (carrageenin oedema; [8]): -6% | % change of increase of original volume, 2 h (carrageenin oedema; [8]): -15% | % change of increase of original volume, 3 h (carrageenin oedema; [8]): -20% | % change of increase of original volume, 4 h (carrageenin oedema; [8]): -8% | % change of increase of original volume, 5 h (carrageenin oedema; [8]): -10% | Increase of original volume (m ± s.e.), 1 h (carrageenin oedema; rat, oral, dose corresponding to 20 mg/kg meclofenamic acid (Ib 25,4 mg/kg; sodium meclofenamate 22,0 mg/kg)): 0.35 ± 0.05 mL | Increase of original volume (m ± s.e.), 2 h (carrageenin oedema; rat, oral, dose corresponding to 20 mg/kg meclofenamic acid (Ib 25,4 mg/kg; sodium meclofenamate 22,0 mg/kg), *P < 0.05): 0.62 ± 0.07 mL | Increase of original volume (m ± s.e.), 3 h (carrageenin oedema; [9]): 0.78 ± 0.07 mL | Increase of original volume (m ± s.e.), 4 h (carrageenin oedema; [9]): 1.11 ± 0.08 mL | Increase of original volume (m ± s.e.), 5 h (carrageenin oedema; [9]): 1.22 ± 0.08 mL | % change of increase of original volume, 1 h (carrageenin oedema; [10]): -22% | % change of increase of original volume, 2 h (carrageenin oedema; [10]): -35% | % change of increase of original volume, 3 h (carrageenin oedema; [10]): -42% | % change of increase of original volume, 4 h (carrageenin oedema; [10]): -31% | % change of increase of original volume, 5 h (carrageenin oedema; [10]): -26% | anti-inflammatory activity compared with reference (in words) (carrageenin oedema; rat, oral, vs sodium meclofenamate): had the anti-inflammatory and analgesic properties of the reference compound; also recorded: behaved in similar manner | minimal effective dose (carrageenin oedema; rat, oral, read-out: dose at which antagonism of the oedema is statistically significant): 68 µmol/kg | Leucocytes (m ± s.e.), 24 h [2, 11]: 16.08 ± 6.85 × 10^6 | Volume of exudate (m ± s.e.), 24 h [2, 11]: 0.26 ± 0.06 mL | Leucocytes (m ± s.e.), 4 h ([2]; os, Ib 31.75 mg/kg × 2 (*P < 0.05 vs controls), sodium meclofenamate 27.5 mg/kg × 2, 4 h): 1.08 ± 0.19 × 10^6 | change of leucocytes (in parentheses), 4 h [2, 12]: -76 | change of volume of exudate (in parentheses), 4 h [2, 12]: -25 | change of leucocytes (in parentheses), 24 h [2, 13]: -81 | change of volume of exudate (in parentheses), 24 h [2, 13]: -71 | Volume of exudate (m ± s.e.), 4 h ([2]; os, dose corresponding to 25 mg/kg meclofenamic acid × 2 (Ib 31.75; sodium meclofenamate 27.5 mg/kg), 4 h): 0.24 ± 0.02 mL | activity relative to the reference compound in inhibiting volume of exudate and total content of leucocytes ([2]; rat, oral, equimolar doses (in meclofenamic acid)): about twice as active as the reference compound | LD50 at 480 h ([3]; male and female rats, 20 days of observation, probit method, read-out: DL50): 271 mg/kg | LD50 at 480 h ([3]; mg/kg meclofenamic acid, read-out: LD50 as corresponding meclofenamic acid): 213 mg/kg | PR (rat; oral LD50, Ib and sodium meclofenamate, rat): 1.935 (1.191-3.586) | Slope (rat; oral LD50, probit method): 2.553 ± 0.6302 | acute toxicity compared with sodium meclofenamate (in words) (rat; rat, oral LD50): less toxic than sodium meclofenamate, to a statistically significant extent | change of Increase of Original Volume (in parentheses), 60 min (arachidonic acid oedema; [5]): -15 | change of Increase of Original Volume (in parentheses), 60 min (arachidonic acid oedema; Ib 38.1 mg/kg, sodium meclofenamate 33 mg/kg): -40 | Increase of Original Volume (m ± s.e.), 60 min (arachidonic acid oedema; dose corresponding to 10 mg/kg meclofenamic acid (Ib 12.7 mg/kg; sodium meclofenamate 11 mg/kg)): 0.53 ± 0.04 | Increase of Original Volume (m ± s.e.), 60 min (arachidonic acid oedema; dose corresponding to 30 mg/kg meclofenamic acid (Ib 38.1 mg/kg, **P < 0.01; sodium meclofenamate 33 mg/kg, *P < 0.05 vs controls)): 0.37 ± 0.05 | activity relative to sodium meclofenamate (arachidonic acid oedema; rat): about twice as active as sodium meclofenamate | statistically significant dose as fraction of the LD50 (arachidonic acid oedema; rat, oedema reduced in statistically significant manner): 1/7 | significance of Ib vs. sodium meclofenamate ([4]; Duncan test): Not significant | % Protection, 0-10 minutes [4, 14]: 41% | % Protection, 10-20 minutes [4, 14]: 19% | % Protection, 20-30 minutes [4, 14]: 31% | % Protection, total [4, 14]: 31% | % Protection, 0-10 minutes [4, 15]: 54% | % Protection, 10-20 minutes [4, 15]: 41% | % Protection, 20-30 minutes [4, 15]: 50% | % Protection, total [4, 15]: 48% | Writhing (m ± s.e.) during 10-20 minutes [4, 16]: 16.6 ± 1.5 | Writhing (m ± s.e.) during 20-30 minutes [4, 16]: 9.8 ± 1.0 | Writhing (m ± s.e.) during 0-10 minutes [4, 17]: 14.8 ± 2.9 | Writhing (m ± s.e.), total minutes [4, 17]: 41.2 ± 4.1 | Writhing (m ± s.e.) during 10-20 minutes ([4]; oral, dose corresponding to 20 mg/kg meclofenamic acid (Ib 25.4 mg/kg; sodium meclofenamate 22.0 mg/kg)): 12.1 ± 2.3 | Writhing (m ± s.e.) during 0-10 minutes [4, 18]: 11.6 ± 2.5 | Writhing (m ± s.e.) during 20-30 minutes [4, 18]: 7.2 ± 1.4 | Writhing (m ± s.e.), total minutes [4, 18]: 30.9 ± 5.8 | analgesic activity compared with reference (in words) ([4]; oral, vs sodium meclofenamate, both doses): had the anti-inflammatory and analgesic properties of the reference compound; also recorded: comparable with that of sodium meclofenamate
